Assay in all cases: growth of human tumour cells (NCI), 48 h
Assay [1] concerns ACHN renal.
For assay [2], the system named is IGROV1 ovarian.
For assay [3], the system named is LOX IMVI melanoma.
Assay [4] relates to NCI-H226 lung.
For assay [5], the system named is OVCAR-4 ovarian.
Assay [6] has as its system SN12C renal.
Assay [7] concerns T-47D breast.
In assay [8] the test system is U251 CNS.
Assay [9] has as its system UO-31 renal.
For assay [10], the system named is HOP-92 NSCLC.

Each structure is given as a SMILES string.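 Protocol summary: plate cells (96-well), add compound at 5 concentrations, incubate 48 h, interpolate endpoints linearly. GI50 = concentration required for 50% inhibition of growth. TGI: concentration producing complete growth inhibition.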

For the compound `C=C(C)C1CCC2(C(=O)O)CCC3(C)C(CCC4C5(C)CCC(OC(=O)NCc6ccccc6)C(C)(C)C5CCC43C)C12` (centres undefined), the GI50 in assay [1] was 3.29 µM; in [3] it was 4.84 µM; in assay [4], 6.69 µM; in assay [5], 3.8 µM; in assay [6] it was 7.11 µM; in assay [7] it was 3.19 µM. Also, the GI50 is 3.07 µM in assay [8] and 1.86 µM in assay [9]. Also, the TGI in [1], in [2], in assay [3], in assay [4], in [5] and in [6] was > 100 µM in each case. For the same compound, the TGI was > 100 µM in assay [7], > 100 µM in assay [8] and 34.5 µM in assay [9].
Turning to `c1cc2c(ncc3cscc32)s1`, the TGI in assay [1] is > 100 µM; in assay [10] it was > 100 µM; in assay [2] it was > 31.6 µM; in [3] it was > 100 µM; in [4] it was > 100 µM; in assay [5] it was > 100 µM. Also, the TGI in assay [6], in assay [8] and in assay [9] was > 100 µM each time.
In the case of `COC(=O)C(NC(=O)c1ccccc1)c1ccco1` (centres undefined), the TGI in assay [1], in [10], in assay [2], in assay [4], in assay [6] and in [7] was > 100 µM throughout. For the same compound, the TGI in [8] and in assay [9] was > 100 µM each time.
As for `Cc1[nH]c2ccccc2c1C1Cc2ccccc2N1C(=O)/C(Cl)=C/c1ccccc1` (centres undefined), the TGI in [1], in assay [10], in assay [2], in assay [3], in assay [4] and in assay [5] was > 100 µM throughout. For the same compound, the TGI in [6], in assay [8] and in [9] was > 100 µM each time.
For `N#CCC(=O)NC1C2CC3CC(C2)CC1C3` (centres undefined), the TGI in [1] was found to be 33.3 µM; in [10] it was 36.1 µM; in assay [2] it was 59.1 µM; in [3], 23.8 µM; in assay [4], 48.5 µM; in assay [5], 50.5 µM. Further, the TGI in assay [6] was 31.5 µM; in assay [8], 29.8 µM; in assay [9] it was > 100 µM.
As to `OC/C=C(\I)CCCOCOCc1ccccc1`, the TGI is > 100 µM in [1]; 53.4 µM in assay [10]; > 100 µM in assay [2]; 45.9 µM in assay [3]; > 100 µM in [4]; > 100 µM in assay [5]. Further, the TGI in assay [6] was > 100 µM; in [8] it was 64 µM; in [9], > 100 µM.
For the compound `CN1C(=O)c2ccccc2NC(=O)C12O[C@@H]2c1cccc(O)c1` (some centres undefined), the TGI in [1], in assay [10], in assay [2], in assay [3], in assay [5] and in assay [6] was > 100 µM throughout. The TGI in assay [7], in assay [8] and in assay [9] was > 100 µM throughout.
For `C/C(=C1/CCC/C(=C(/C)c2ccccc2)C1=O)c1ccccc1`, the TGI in assay [1] was > 100 µM; in [10] it was > 100 µM; in [2] it was > 100 µM; in assay [3], > 100 µM; in assay [4], 56.5 µM; in [5] it was > 100 µM. Moreover, the TGI in [6] is > 100 µM; in [8], 74.2 µM; in [9], > 100 µM.
Turning to `COc1ncc(-c2ccc3ncnc(Nc4cccc(Cl)c4)c3c2)cc1NS(=O)(=O)CCN1CCOCC1`, the GI50 was 0.659 µM in assay [4]; 1.14 µM in assay [5]; 0.293 µM in assay [6]; < 0.01 µM in [7]; 0.824 µM in [8]. For the same compound, the TGI is > 100 µM in [4]; > 100 µM in [5]; > 100 µM in [6]; 0.6 µM in [7]; > 100 µM in assay [8].
On to `Cc1ccc(-c2cc(=O)c3cc(C)c(C)c(C(=O)O)c3o2)cc1C`, for which the TGI in assay [1], in assay [10], in [2], in [3], in assay [4] and in assay [5] was > 100 µM in each case. Further, the TGI in assay [6], in assay [8] and in [9] was > 100 µM in each case.
Regarding `C=C1C(=O)O[C@H]2[C@H]1CC/C(COC(=O)c1cc3ccccc3s1)=C\CC[C@@]1(C)O[C@@H]21`, the GI50 is 1.5 µM in [1]; 1.68 µM in [10]; 1.76 µM in assay [2]; 0.206 µM in [3]; 2 µM in assay [4]; 2.08 µM in [5]. Further, the GI50 in [6] is 2.06 µM; in assay [8], 1.52 µM; in [9], 1.4 µM. For the same compound, the TGI in [1] amounted to 2.93 µM; in assay [10] it was 3.49 µM; in [2] it was 3.58 µM; in [3], 0.509 µM; in assay [4] it was 4.63 µM; in [5], 4.57 µM. The results for the TGI in assay [6], in assay [8] and in assay [9] were 4.61 µM, 3.03 µM and 2.79 µM, respectively.
Consider `N#CCc1ccc(C(C#N)/C(CCCC(=O)Nc2cccc([N+](=O)[O-])c2)=N/NC(N)=S)cc1` (centres undefined), for which the TGI in assay [1], in [10], in [2], in assay [3], in assay [4] and in assay [5] was > 100 µM each time. Moreover, the TGI in assay [6], in assay [8] and in assay [9] was > 100 µM each time.
As to `CC(=O)N1C/C(=C\c2ccc(N(C)C)cc2)C(=O)/C(=C/c2ccc(N(C)C)cc2)C1`, the TGI in assay [1], in assay [10], in assay [2], in [3], in assay [4] and in assay [5] was > 100 µM throughout. The TGI in assay [6], in assay [8] and in [9] was > 100 µM throughout.
As for `CC1(C)N=C(N)N=C(N)N1c1ccc(OCc2ccc(S(=O)(=O)F)c(Cl)c2)c(Cl)c1`, the GI50 is 5.48 µM in assay [1]; 0.123 µM in assay [2]; 0.448 µM in [3]; 9.72 µM in assay [4]; 17.5 µM in [5]; 0.558 µM in assay [6]. Besides, the results for the GI50 in [7], in [8] and in [9] were 77.7 µM, 2.9 µM and 46 µM, respectively. Moreover, the TGI in [1], in assay [2], in assay [3], in assay [4], in assay [5] and in [6] was > 100 µM in each case. The TGI in [7], in [8] and in assay [9] was > 100 µM throughout.
Take `COc1ccc(/C(Cl)=C(\C=O)c2ccc([N+](=O)[O-])cc2)cc1`: the TGI is 70.5 µM in assay [1]; 31.2 µM in assay [10]; 53.3 µM in assay [2]; > 48.1 µM in assay [3]; 46.9 µM in [4]; 57.3 µM in assay [5]. Moreover, the TGI in assay [6] was 49.1 µM; in assay [8], 19.4 µM; in [9] it was 56.2 µM.
Regarding `C/C=C(\C)CC/C=C/CO[Si](C)(C)C(C)(C)C`, the TGI in [1] is > 100 µM; in assay [2], > 100 µM; in assay [3], 49.9 µM; in assay [4], > 100 µM; in assay [5] it was > 100 µM; in [6] it was > 100 µM. The TGI in assay [7] and in [9] was > 100 µM each time.
Consider `Cn1c2ccccc2c2c3[nH]c(=O)[nH]c(=O)c3c3c4ccccc4n(C)c3c21`, for which the GI50 in [1] was 1.33 µM; in assay [10], 3.4 µM; in [2] it was 2.14 µM; in assay [3] it was 2.13 µM; in assay [4], 1.66 µM; in [6], 4.21 µM. In addition, the GI50 is 2.05 µM in assay [7] and 3.02 µM in assay [8]. For the same compound, the TGI was 6.62 µM in assay [1]; 14.6 µM in [10]; 12 µM in assay [2]; 11.9 µM in assay [3]; 5.37 µM in assay [4]; > 100 µM in assay [6]. For the same compound, the TGI was determined as 27.1 µM in [7] and 13 µM in [8].
For `CC(C)(C)c1ccc(O)c(CN(Cc2cc(C(C)(C)C)ccc2O)c2ccccc2)c1`, the TGI in assay [1] was 35.5 µM; in assay [10] it was 30.7 µM; in assay [2], 47.7 µM; in assay [3] it was 26.8 µM; in [5] it was 61.8 µM; in assay [6], 32.1 µM. The TGI was 42.8 µM in assay [7], 28.4 µM in [8] and 29.2 µM in assay [9].

For the origin of these results see PubChem BioAssay (NCI).
